# Experimental data from a melting point compilation (Tetko et al.; mined from patent text by program, amines drawn as free bases though some values may be those of a salt).
row,melting point [°C],Structure (SMILES)
1,142 to 146,CC(C)Oc1ccc(C(=O)N/C(=C\c2ccc(OC(F)(F)F)cc2)C(=O)NCCO)cc1
2,231,CC(Nc1nc(Oc2cccc3sc(N)nc23)cc(-c2ccc(C(F)(F)F)cc2)n1)c1ccc(F)cc1 (stereo not given)
3,157 to 159,Cc1cc(C(=O)OC2CC3C(=O)NC4(C(=O)NS(=O)(=O)C5CC5)CC4C=CCCCCCC(NC(=O)OC(C)(C)C)C(=O)N3C2)no1 (stereo not given)
4,74 to 75,ClC1=NC(Cl)(C(Cl)(Cl)C(Cl)(Cl)Cl)N=C1Cl
5,185,CC1(c2ccccc2Cl)C(=O)Nc2ccc(Cl)cc21 (stereo not given)
6,207 to 210,COc1cc2c(cc1OC)C1Cc3cc(OC)c(OC(=O)C=Cc4cc(OC)c(OC)c(OC)c4)cc3CN1CC2 (stereo not given)
7,149 to 150,CC(=NOCCOc1ccc(C(=O)O)c(O)c1)c1ccccc1
8,281 to 282,COc1cc(OC)c2c(=O)[nH]c(-c3ccc(OCCO)c(-c4ccc(S(C)=O)cc4)n3)nc2c1 (stereo not given)
9,49 to 53,CCC1(CC)C(=O)N(C(C)(C)CC(C)(C)C)CC(C)(C)N1OC(C)(C)C#N
10,142 to 145,CCOC1CC2(C)C(CCC3C2C(=O)CC2(C)C3CCC23OCCO3)CC1O (stereo not given)
11,198,O=C1NC(=O)C(Cc2ccc(OCCn3nc(-c4ccccc4)c4ccccc4c3=O)cc2)S1 (stereo not given)
12,167 to 170,COc1cc(OC)c2c(=O)[nH]c(-c3ccc(OCC[N+]4([O-])CCCC4)c(-c4ccc(S(C)(=O)=O)cc4)n3)nc2c1
13,140 to 142,CCCSC(C(N)=O)c1cccc(C(=O)c2ccc(F)cc2)c1N (stereo not given)
14,283 to 284,CC(=O)Nc1cc([N+](=O)[O-])ccc1O
15,154 to 156,O=C1C(=Cc2c[nH]c3ccccc23)N(Cc2ccccc2)C(=O)N1Cc1cc(C(F)(F)F)cc(C(F)(F)F)c1
16,125 to 127,CCOC(=O)c1cc(NC(=O)c2ccc(Cl)cc2Cl)ccc1Oc1cncc(Cl)c1
17,218,C=C(C)C(=O)Nc1ccc(O)c(C(=O)O)c1
18,240 to 243,O=C(O)COc1cccc2c1CCc1sc(NCCC(c3ccccc3)c3ccccc3)nc1-2
19,114 to 116,CC(=O)c1cn(C(=O)OC(C)(C)C)c2ccc(OCc3ccccc3)cc12
20,158 to 159,O=C(O)CCNC(=O)C1=C(C(=O)Nc2ccc(Cl)cc2F)CCCC1
21,100 to 105,CS(=O)(=O)c1ccc([C@@H](CC2CCCC2)C(=O)Nc2nc3ccccc3s2)cc1

row,melting point [°C],Structure (SMILES)
1,117 to 118,N#Cc1ccc(-c2cccc3cncn23)cc1
2,69 to 71,CCc1nc(NC(C)C)c([N+](=O)[O-])c(SC2CCCCC2)n1
3,77 to 78,CCSc1nc2ccc(N)cc2s1
4,164 to 165,O=C(c1ccccc1)c1ccccc1C#CCN1C(=O)c2ccccc2C1=O
5,114 to 118,COc1ccc(N2CCN(C(=O)C(c3ccccc3)n3cnc4[nH]ncc4c3=S)CC2)cc1 (stereo not given)
6,146 to 148,CNC(=S)C1=CC(C)(COC)Oc2ccc([N+](=O)[O-])cc21 (stereo not given)
7,140 to 143,CCOC(=O)COc1c(Cl)c(Cl)c2c(-c3ccccc3F)noc2c1Cl
8,56 to 58,COc1ccc(CN(CCCC#N)Cc2ccc(OC)cc2)cc1
9,120 to 121,COc1ccc(CS[C@@H]2CN[C@H](C(N)=O)C2)cc1
10,171 to 173,Cc1nnc2ccc(-c3cccc(N(C)C(=O)C4CCC4)c3)nn12
11,112 to 113,COc1cc(O)c(C(=O)CC(=O)C(C)(C)C#N)c(OC)c1
12,93 to 97,O=C(OCC1OC(n2cc(F)c(=O)[nH]c2=O)C(O)C1OC(=O)c1ccccc1)c1ccccc1 (stereo not given)
13,81 to 87,CN1CCN([C@H]2CC[C@@H](N)CC2)C1=O
14,124 to 129,CC1C(=O)N(C(=O)NS(=O)(=O)c2ccc(Cl)cc2)N1C(c1ccccc1)c1ccccc1 (stereo not given)
15,223,O=C1NCC(Cn2cncn2)(c2ccc(Cl)cc2Cl)O1 (stereo not given)
16,118 to 120,COc1ccc(CCNC(=O)C2CCC2)cc1
17,176 to 177,Nc1ccc(S(=O)(=O)Nn2cc(-c3ccccc3)c3ccccc32)cc1
18,93 to 94,CCCCCCCCCCCCCCCCCCCCC(COC(C)=O)(COC(C)=O)NC(C)=O
19,101,CC(C)N(C(=S)Nc1ccccc1[N+](=O)[O-])C1CCN(CCc2ccccc2)CC1
20,150 to 151,COc1ccc2c(c1)c(C1CCN(CCOc3ccccc3C(=O)O)CC1)cn2Cc1cccs1
21,112 to 113,OC(c1ccc(Br)cc1)c1ccc(Br)cc1

# The next lines start with the compound.
row,Structure (SMILES),melting point [°C]
1,CN(C)S(=O)(=O)c1cc(C(=O)O)cc(NCc2ccccc2)c1Oc1ccccc1,205 to 206
2,O=C1NCN(c2ccccc2)C12CCN(C[C@@H]1CCc3ccccc3[C@H]1O)CC2 (relative stereo),204 to 205
3,O=C1C(=Cc2cc(Br)cs2)CCc2cc(OCCn3ccnc3)ccc21,164 to 166
4,Cc1cc(OCc2oc(-c3ccc(C(F)(F)F)cc3)nc2C)ccc1CCC(=O)O,113 to 115
5,CCCCCc1ccc(-c2ccc(-c3ccc(CC)cc3)cc2F)s1,44
6,O=CNc1cc([N+](=O)[O-])cc([N+](=O)[O-])c1,121 to 123
7,CCC(=O)C1=CC=C(OC)C(Cl)(Cl)C1,51 to 54
8,Cc1ccc(OC2CCN(C(C=O)Nc3ccc4c(c3)OCC(=O)N4)CC2)cc1 (stereo not given),223 to 224
9,CCc1nn(CCO)c(CC)c1Oc1cc(-n2cccn2)cc(-n2cccn2)c1,108 to 110
10,CN(C(=O)c1cccs1)c1cccc2cc(-c3nccs3)[nH]c12,250
11,Nc1nc2ccccc2c2c1ncn2CCOCC#Cc1ccccc1C(F)(F)F,154 to 155
12,CC(C)(C)OC(=O)C(Br)=CC1C(C(=O)O)C1(C)C (stereo not given),76
13,O=C1c2ccccc2-c2csc(N3C(=O)c4ccccc4C3=O)c21,197 to 199
14,CCC(O)(CC(=O)OC)c1cc2n(c(=O)c1COC)Cc1cc3ccccc3nc1-2 (stereo not given),163 to 166
15,O=S(=O)(c1ccc(Cl)cc1)N1CCCC1c1ccccc1F (racemic),134
16,CCn1c(=O)c(C)cc2cnc(SC)nc21,84 to 86
17,Cc1ccccc1NC(=O)Nc1ccc(CNC(=O)OC(C)(C)C)cc1,200 to 202
18,N#Cc1c(Cl)c([N+](=O)[O-])cc2[nH]c(=O)c(=O)[nH]c12,327 to 331
19,CN(C)C1(c2ccccc2)CCC(=CC(=O)NCc2ccccc2)CC1 (stereo not given),145 to 148
20,COc1cccc(N2C(CO)=Cc3ccsc3S2(=O)=O)c1,141 to 143
21,COc1ccccc1COC(=O)c1ncn2c1[C@@H]1CCCN1C(=O)c1c(Cl)cccc1-2,178 to 179
22,COc1cccc2c1CC(C(=O)NCCOc1ccc(CC(=O)O)cc1)N2S(=O)(=O)c1ccc(-c2cccc(C(F)(F)F)c2)cc1 (stereo not given),96
23,N#Cc1cc(Cn2cncn2)cc(-c2ccccc2)c1,109 to 110
24,CCN(CC)OP(=O)(Oc1ccccc1)Oc1ccccc1,51 to 53
25,CCN1C(=O)C(=C2C=C(N3CCCC3)CC(C)(C)C2)C(=O)N(CC)C1=S,226 to 227
26,CCNC1CCN(c2c(F)cc3c(=O)c(C(=O)O)cn(C4CC4)c3c2OC)CC1C (stereo not given),160 to 162
27,CSC12SCC(COC(C)=O)(OS(C)(=O)=O)C(C(=O)OCc3ccc([N+](=O)[O-])cc3)N1C(=O)C2N=[N+]=[N-] (stereo not given),147

row,Structure (SMILES),melting point [°C]
1,Nc1cc(Br)c(OC(F)(F)C(F)Cl)cc1[N+](=O)[O-] (stereo not given),90
2,Fc1cc(-c2ccc3nnn(Cc4ccc5ncccc5c4)c3n2)ccc1OC1CCOCC1,165 to 167
3,C=CC(=O)Nc1ccc2ncnc(Nc3cccc(C)c3)c2c1,247 to 248
4,CNS(=O)(=O)c1cc(C(C)(C)C)cc(CNC(C)=O)c1O,173 to 174
5,O=[N+]([O-])C=C1NCCN1Cc1ccc(Cl)nc1,160 to 161
6,COc1cccc(Cn2c(-c3ccccc3)nc(Cl)c2CC(=O)O)c1,135 to 138
7,CN(C)C=C(C#N)C(=O)Nc1ccc(F)cc1Cl,138 to 139
8,CC(C)c1sc2ncnc(N)c2c1-c1ccc(N)cc1,187 to 189
9,C[C@H]1CC[C@H]2C(C)(C)[C@@H](O)CC[C@]23Oc2c(c(OCc4ccccc4)cc4c2CN(C(=O)OC(C)(C)C)C4=O)C[C@]13C,138 to 140
10,Cc1cc(O)cc(O)c1C(=O)NNC(=O)C(O)c1ccccc1 (stereo not given),188 to 189
11,O=C1c2c(Cl)cccc2-c2cc(O)cc3cccc1c23,308 to 312
12,CC(C(=O)N(C)C)n1cc(Cl)c(-c2ccc(Cl)cc2)n1 (stereo not given),92 to 93.5
13,CCOC(=O)c1nc2ccc(N)cc2c(O)c1C(=O)OCC,219 to 221
14,COc1ccc(C(=O)c2ccccc2F)c(O)c1C,118 to 120
15,CC(=O)CC(=O)CC(=O)c1cc(S(=O)(=O)c2ccccc2)ccc1[N+](=O)[O-],143 to 145
16,CCC(NC(=O)COc1c(C)cccc1C)C(N)=O (stereo not given),182 to 184
17,O=[N+]([O-])c1ccc(CN2CCN(c3ccc(F)cc3)CC2)cc1,139 to 141
18,COc1cc(OCCCN2CCc3cc(OC)c(OC)cc3C2)ccc1NC(=O)c1cccc2c(=O)c3cccc(F)c3[nH]c12,152
19,COc1cc(O)cc(OC)c1/C=C/S(=O)(=O)CS(=O)(=O)/C=C/c1c(OC)cc(O)cc1OC,148 to 150
20,N#Cc1ccc(CNc2cc(C(N)=O)c([N+](=O)[O-])cc2[N+](=O)[O-])cc1,201 to 203
21,O/N=C(/CCN1CCN(c2ncccn2)CC1)c1ccccc1,175 to 177
22,Cc1nc2nccc(O)c2cc1Br,> 250
23,CS(=O)(=O)c1ccc(S(=O)(=O)N2CCn3c(c(C(N)=O)c(Cl)c3-c3ccccc3)C2)cc1,258 to 259
24,Cc1nc2cc(NC(=O)c3cc4cc(F)ccc4n3Cc3cccc(F)c3)cnc2n1C,274 to 275
25,N#Cc1ccc(Oc2ccc([N+](=O)[O-])c(Oc3ccccc3)c2Cl)cc1,140 to 142
26,O=C1CSC(=S)N1c1ccc(Cl)c(Cl)c1,176 to 178
